{"source": "ChEMBL document CHEMBL1201862", "about": "“PubChem BioAssay data set” (2004)", "key": {"[1]": {"target": "T1, Carboxy-terminal domain RNA polymerase II polypeptide A small phosphatase 1 (Homo sapiens, UniProt Q9GZU7)", "T1 sequence (Q9GZU7 whole entry)": "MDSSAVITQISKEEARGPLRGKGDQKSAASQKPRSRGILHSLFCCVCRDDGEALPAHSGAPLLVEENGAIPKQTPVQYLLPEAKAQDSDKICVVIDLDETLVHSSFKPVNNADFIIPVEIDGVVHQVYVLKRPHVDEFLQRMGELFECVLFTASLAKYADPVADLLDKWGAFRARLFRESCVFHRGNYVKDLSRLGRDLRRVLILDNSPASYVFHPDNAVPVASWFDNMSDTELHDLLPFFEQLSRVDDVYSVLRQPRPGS", "test": "inhibitors of CTDSP1, concentration-response testing, biochemical assay, absorbance-based, actives from ultra-high-throughput screening (AID 540297)", "assay_type": "functional"}, "[2]": {"tested_on": "Streptococcus sp. 'group A'", "test": "growth inhibition of control SK(-) GAS strain, dose response, counter-screen for streptokinase expression inhibitor project, luminescence, kanamycin, BacTiterGlo, confirmation (AID 1900)", "assay_type": "functional, organism-based", "conditions": "Streptococcus sp. 'group A'"}, "[3]": {"tested_on": "Streptococcus", "test": "Group A Streptococcus viability loss, dose response, counter-screen for streptokinase expression inhibitor project, luminescence, BacTiterGlo (AID 1915);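 note: potency for reduction of bacterial viability or growth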", "assay_type": "functional, organism-based", "conditions": "Streptococcus"}, "[4]": {"target": "T2, Streptokinase A (Streptococcus pyogenes serotype M1, UniProt P10520)", "T2 sequence (P10520 whole entry)": "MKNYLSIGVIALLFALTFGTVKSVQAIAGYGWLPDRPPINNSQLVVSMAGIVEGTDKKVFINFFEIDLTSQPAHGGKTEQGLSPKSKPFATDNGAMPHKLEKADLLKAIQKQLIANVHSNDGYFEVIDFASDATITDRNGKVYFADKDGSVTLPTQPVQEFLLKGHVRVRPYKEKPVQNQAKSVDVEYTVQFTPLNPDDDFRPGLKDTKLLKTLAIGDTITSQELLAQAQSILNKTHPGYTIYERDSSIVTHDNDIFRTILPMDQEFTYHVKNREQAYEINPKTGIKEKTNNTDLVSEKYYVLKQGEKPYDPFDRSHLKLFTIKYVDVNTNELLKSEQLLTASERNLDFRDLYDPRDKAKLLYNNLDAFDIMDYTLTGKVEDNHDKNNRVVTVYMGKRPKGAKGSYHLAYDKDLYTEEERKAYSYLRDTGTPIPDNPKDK", "test": "S. pyogenes streptokinase expression inhibitors, potency, dose response, plasminogen activation absorbance, OD405 (AID 1914);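 note: secreted streptokinase activity via plasminogen activation per viability signal from cell pellet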", "assay_type": "functional, Streptococcus pyogenes M1 GAS"}, "[5]": {"test": "cells", "assay_type": "functional"}, "[6]": {"test": "THP-1 cell cytotoxicity, dose response, cytotoxicity control for non-replicating M. tuberculosis project (AID 489025)", "assay_type": "functional"}, "[7]": {"test": "HepG2 cell cytotoxicity, dose response, cytotoxicity control for non-replicating M. tuberculosis project (AID 489018)", "assay_type": "functional", "conditions": "Mycobacterium tuberculosis"}, "[8]": {"test": "inhibitors of firefly luciferase expression or activity, dose response, H4 neuroglioma cells, luminescence (AID 1990)", "assay_type": "functional, cell-based"}, "[9]": {"test": "Luminescence Cell-Based Dose Response HTS to Identify Inhibitors of 5'UTR Stem-Loop Driven Prion Protein mRNA Translation in H4 Neuroglioblastoma Cells. [Related pubchem assays: 1827 (Project Summary), 1813 (Primary HTS)]", "assay_type": "functional"}, "[10]": {"test": "inhibitors of SNCA 5'UTR-driven reporter translation, confirmation, H4 neuroglioma cells, luminescence (AID 1988)", "assay_type": "functional, cell-based"}, "[11]": {"test": "Vero E6 cell cytotoxicity, dose response, cytotoxicity control for non-replicating M. tuberculosis project, secondary assay (AID 492998)", "assay_type": "functional, VeroE6", "conditions": "Vero C1008"}, "[12]": {"test": "inhibitors of intracellular T. cruzi replication, confirmation, NIH3T3 host cells, beta-gal luminescence (AID 2044);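 note: luminescent beta-galactosidase reporter signal from transgenic T. cruzi replicating inside host cells; inhibitors lower the luminescence signal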", "assay_type": "functional, cell-based"}, "[13]": {"test": "cytotoxicity toward NIH3T3 fibroblasts, dose response, counter-screen, cell-based, ATP luminescence, mouse fibroblasts (AID 2010);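 note: cells exposed to compound for about 90 hours before reading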", "assay_type": "functional", "conditions": "NIH3T3"}, "[14]": {"target": "Heat shock protein HSP 90-alpha (Homo sapiens, UniProt P07900)", "assay_type": "functional, organism-based"}, "[15]": {"target": "Nonstructural protein 1 (Influenza A virus, UniProt Q194T2)", "sequence (Q194T2 whole entry)": "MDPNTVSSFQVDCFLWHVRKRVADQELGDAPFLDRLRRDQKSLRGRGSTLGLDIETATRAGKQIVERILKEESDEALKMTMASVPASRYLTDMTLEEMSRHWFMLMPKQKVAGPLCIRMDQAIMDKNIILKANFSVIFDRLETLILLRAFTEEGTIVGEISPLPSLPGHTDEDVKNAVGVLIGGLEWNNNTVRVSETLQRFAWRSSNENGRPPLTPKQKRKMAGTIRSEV", "assay_type": "functional, Influenza A virus (A/California/07/2009(H1N1))"}, "[16]": {"target": "T3, Apoptotic protease-activating factor 1 (Homo sapiens, UniProt O14727)", "T3 sequence (O14727 whole entry)": "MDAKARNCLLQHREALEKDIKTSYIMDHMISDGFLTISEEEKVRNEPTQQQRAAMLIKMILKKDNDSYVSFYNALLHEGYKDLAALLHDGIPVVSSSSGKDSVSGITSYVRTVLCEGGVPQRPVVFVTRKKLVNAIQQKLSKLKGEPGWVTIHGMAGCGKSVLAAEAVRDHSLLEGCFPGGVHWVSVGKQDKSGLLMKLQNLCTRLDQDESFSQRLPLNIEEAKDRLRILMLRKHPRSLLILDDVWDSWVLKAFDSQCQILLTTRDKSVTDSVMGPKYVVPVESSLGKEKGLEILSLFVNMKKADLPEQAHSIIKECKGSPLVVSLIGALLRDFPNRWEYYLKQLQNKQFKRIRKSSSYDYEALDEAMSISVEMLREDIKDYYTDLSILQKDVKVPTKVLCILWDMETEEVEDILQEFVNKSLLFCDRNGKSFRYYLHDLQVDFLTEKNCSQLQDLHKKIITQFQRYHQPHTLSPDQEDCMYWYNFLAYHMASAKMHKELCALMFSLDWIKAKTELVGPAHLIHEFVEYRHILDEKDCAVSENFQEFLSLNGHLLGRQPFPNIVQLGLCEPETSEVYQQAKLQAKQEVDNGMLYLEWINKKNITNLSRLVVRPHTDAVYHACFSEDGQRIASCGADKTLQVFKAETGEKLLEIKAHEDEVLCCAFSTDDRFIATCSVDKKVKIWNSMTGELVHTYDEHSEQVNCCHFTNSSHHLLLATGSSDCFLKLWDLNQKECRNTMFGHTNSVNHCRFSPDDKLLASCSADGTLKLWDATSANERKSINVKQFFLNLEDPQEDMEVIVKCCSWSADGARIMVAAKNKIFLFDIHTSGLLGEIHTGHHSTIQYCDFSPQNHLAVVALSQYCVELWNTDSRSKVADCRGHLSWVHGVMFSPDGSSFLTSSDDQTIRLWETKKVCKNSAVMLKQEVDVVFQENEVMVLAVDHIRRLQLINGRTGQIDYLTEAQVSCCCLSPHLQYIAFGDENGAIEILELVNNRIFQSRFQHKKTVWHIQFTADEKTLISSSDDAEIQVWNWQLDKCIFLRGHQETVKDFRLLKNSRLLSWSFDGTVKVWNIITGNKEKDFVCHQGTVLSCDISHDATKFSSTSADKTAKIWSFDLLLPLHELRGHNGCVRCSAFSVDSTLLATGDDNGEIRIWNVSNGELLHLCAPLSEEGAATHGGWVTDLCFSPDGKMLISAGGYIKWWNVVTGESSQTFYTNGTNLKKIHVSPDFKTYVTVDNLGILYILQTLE", "assay_type": "functional"}, "[17]": {"target": "Glucose-6-phosphate 1-dehydrogenase (Homo sapiens, UniProt P11413)", "sequence (P11413 whole entry)": "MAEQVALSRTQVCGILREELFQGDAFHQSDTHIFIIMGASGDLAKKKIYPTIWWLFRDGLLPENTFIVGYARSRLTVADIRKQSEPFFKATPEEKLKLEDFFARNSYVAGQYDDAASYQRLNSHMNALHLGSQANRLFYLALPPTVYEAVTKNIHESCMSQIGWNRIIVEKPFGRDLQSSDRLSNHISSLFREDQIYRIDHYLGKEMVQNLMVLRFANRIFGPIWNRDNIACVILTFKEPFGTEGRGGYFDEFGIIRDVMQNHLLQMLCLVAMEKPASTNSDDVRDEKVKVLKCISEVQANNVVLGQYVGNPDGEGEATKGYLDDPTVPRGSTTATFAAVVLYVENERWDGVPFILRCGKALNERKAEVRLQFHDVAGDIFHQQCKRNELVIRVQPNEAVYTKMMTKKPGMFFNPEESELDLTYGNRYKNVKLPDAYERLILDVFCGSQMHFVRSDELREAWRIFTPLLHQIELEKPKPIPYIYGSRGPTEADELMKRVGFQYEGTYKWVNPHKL", "test": "human G6PD enzyme inhibitors, dose response, selectivity assay for P. falciparum G6PD inhibitor project, biochemical, fluorescence (AID 504792)", "assay_type": "functional"}}, "note": "Active and inactive are the calls of the source."}
{"smiles": "N[C@@H](C(=O)N[C@@H]1C(=O)N2C(C(=O)O)=C(Cl)CS[C@H]12)c1ccccc1", "note": "[CEFACLOR ANHYDROUS]", "values": [{"measurement": "IC50", "setting": "[1]", "result": "7.18 µM (active)"}, {"measurement": "EC50", "setting": "[2]", "result": "0.559 µM (active)"}, {"measurement": "EC50", "setting": "[3]", "result": "1.32 µM (active)"}, {"measurement": "EC50", "setting": "[4]", "result": "> 150 µM (not active)"}]}
{"smiles": "CC1CCN(CCc2nc3cc(NC(=O)COc4ccc(Cl)cc4)ccc3n2C)CC1", "values": [{"measurement": "IC50", "setting": "[5]", "result": "28.1 µM (active)"}, {"measurement": "CC50", "setting": "[6]", "result": "26.1 µM (active)"}, {"measurement": "CC50", "setting": "[7]", "result": "> 20 µM (active)"}]}
{"smiles": "CCC(=O)Nc1nc2ccccc2n1Cc1ccc(C)cc1", "values": [{"measurement": "IC50", "setting": "[5]", "result": "0.7 µM (active)"}, {"measurement": "EC50", "setting": "[8]", "result": "15.1 µM (active)"}, {"measurement": "EC50", "setting": "[9]", "result": "11.8 µM (active)"}, {"measurement": "EC50", "setting": "[10]", "result": "8.69 µM (active)"}, {"measurement": "CC50", "setting": "[6]", "result": "> 40 µM (active)"}, {"measurement": "CC50", "setting": "[7]", "result": "> 20 µM (active)"}, {"measurement": "CC50", "setting": "[11]", "result": "16.1 µM (active)"}]}
{"smiles": "CCCc1cc(NCc2ccccn2)n2nc(C)c(-c3ccccc3)c2n1", "values": [{"measurement": "IC50", "setting": "[5]", "result": "1.18 µM (active)"}, {"measurement": "EC50", "setting": "[12]", "result": "3.58 µM (active)"}, {"measurement": "EC50", "setting": "[2]", "result": "6.67 µM (active)"}, {"measurement": "EC50", "setting": "[3]", "result": "21.7 µM (active)"}, {"measurement": "EC50", "setting": "[13]", "result": "8.73 µM (active)"}, {"measurement": "CC50", "setting": "[6]", "result": "10.2 µM (active)"}, {"measurement": "CC50", "setting": "[7]", "result": "4.48 µM (active)"}, {"measurement": "EC50", "setting": "[4]", "result": "> 150 µM (not active)"}, {"measurement": "AC50", "setting": "[14]", "result": "1.58 µM (active)"}, {"measurement": "CC50", "setting": "[11]", "result": "> 20 µM (active)"}]}
{"smiles": "CCOC(=O)c1ccc(N2C(=O)CC(N(C)CCc3ccc(OC)c(OC)c3)C2=O)cc1", "note": "(centres undefined)", "values": [{"measurement": "AC50", "setting": "[14]", "result": "3.1 µM (active)"}]}
{"smiles": "CN(C)c1ccc(N=Nc2ccc3ncccc3c2)cc1", "values": [{"measurement": "IC50", "setting": "[15]", "result": "20.4 µM (active)"}]}
{"smiles": "CC1=[N+](C)c2c(ccc3cccnc23)C1(C)C", "values": [{"measurement": "IC50", "setting": "[15]", "result": "> 100 µM (active)"}]}
{"smiles": "CCOc1cc(NCc2ccccc2)c2ncn(C(C)C)c2c1", "values": [{"measurement": "IC50", "setting": "[16]", "result": "34.7 µM (active)"}, {"measurement": "IC50", "setting": "[17]", "result": "> 80 µM (inactive)"}]}
{"smiles": "Cc1cc(NCc2ccccn2)n2nc(C)c(-c3ccccc3)c2n1", "values": [{"measurement": "IC50", "setting": "[5]", "result": "3.2 µM (active)"}, {"measurement": "CC50", "setting": "[6]", "result": "6.19 µM (active)"}, {"measurement": "CC50", "setting": "[7]", "result": "3.11 µM (active)"}, {"measurement": "CC50", "setting": "[11]", "result": "13.6 µM (active)"}]}
{"smiles": "Cc1cccc(C(=O)Nc2sc3c(c2C(=O)O)CCCC3)c1", "values": [{"measurement": "IC50", "setting": "[17]", "result": "> 80 µM (inactive)"}]}
